From patent publication US9255077B2, “Fluorine atom-containing mercapto compound” (FUJIFILM CORPORATION, priority 2012, dated 2016)

Experiment: Solubility check: surface profile of coated fluoropolymer film observed by optical microscope
Format: physicochemical
Details: for Solubility: 0.3 wt % with respect to Cytop CTL-809M in perfluorotributylamine/1,1,1,3,3,3-hexafluoropropan-2-ol/Cytop CTL-809M=90/5/5 (parts by weight), applied onto glass substrate, 2 μm film, dried; for Solubility / compatibility with resin: same test as Table 1, coated Cytop CTL-809M film
Method: To a mixed solution of perfluorotributylamine/1,1,1,3,3,3-hexafluoropropan-2-ol/Cytop CTL-809M (manufactured by Asahi Glass Co., Ltd.)=90/5/5 (parts by weight), was added the compound represented by formula (1) according to the invention (any of Compounds 1-1 to 1-8) or any of Comparative Compounds C-1 to C-3 as shown below in an amount of 0.3 wt % with respect to the Cytop CTL-809M. Thereafter, the mixed solution was applied onto a glass substrate to a film thickness of 2 μm and dried.

Row | SMILES | Solubility | Solubility / compatibility with resin
1 | O=C(CCSc1nnc(S)s1)OCCC(F)(F)C(F)(F)C(F)(F)C(F)(F)C(F)(C(F)(F)F)C(F)(F)F [Compound 1-1] | Compatible | –
2 | CC(CSc1nnc(S)s1)C(=O)OCCC(F)(F)C(F)(F)C(F)(F)C(F)(F)C(F)(C(F)(F)F)C(F)(F)F (centres unmarked) [Compound 1-2] | Compatible | –
3 | O=C(CCSc1nnc(S)s1)OCCC(F)(F)C(F)(F)C(F)(C(F)(F)F)C(F)(F)F [Compound 1-3] | Compatible | –
4 | O=C(CCSc1nnc(S)s1)OCCC(F)(F)C(F)(F)C(F)(F)C(F)(F)C(F)(F)C(F)(F)C(F)(C(F)(F)F)C(F)(F)F [Compound 1-4] | Compatible | –
5 | O=C(CSc1nnc(S)s1)OCCC(F)(F)C(F)(F)C(F)(F)C(F)(F)C(F)(C(F)(F)F)C(F)(F)F [Compound 1-5] | Compatible | –
6 | O=C(CCSc1nnc(S)s1)OCC(F)(F)C(F)(F)C(F)(F)C(F)(F)C(F)(C(F)(F)F)C(F)(F)F [Compound 1-6] | Compatible | –
7 | O=C(CCSc1nnc(S)s1)OCCCC(F)(F)C(F)(F)C(F)(F)C(F)(F)C(F)(C(F)(F)F)C(F)(F)F [Compound 1-7] | Compatible | –
8 | O=C(CCSc1nnc(S)s1)OCC(F)(F)C(F)(C(F)(F)C(F)(F)F)C(F)(F)C(F)(F)C(F)(F)C(F)(F)F (centres unmarked) [Compound 1-8] | Compatible | –
9 | CC(C)CCCCCCOC(=O)CCSc1nnc(S)s1 [Compound C-1, reference compound] | Remain partially | remained partially undissolved
10 | O=C(CSc1nnc(S)s1)OCCC(F)(F)C(F)(F)C(F)(F)C(F)(F)F [Compound C-2, reference compound] | Bleed out (compounds which bleed out are denoted by “Bleed out,”) | bled out on the resin surface
11 | O=C(CSc1nnc(S)s1)OCCC(F)(F)C(F)(F)C(F)(F)C(F)(F)C(F)(F)C(F)(F)C(F)(F)F [Compound C-3, reference compound] | Bleed out slightly | bled out on the resin surface
